{
  "source": "ChEMBL document CHEMBL1159069",
  "about": "“[Lys(DOTA)4]BVD15, a novel and potent neuropeptide Y analog designed for Y1 receptor-targeted breast tumor imaging” (Bioorg Med Chem Lett, 2010)",
  "format_in_all_cases": "cell-based",
  "key": {"[1]": {"target": "T1, Neuropeptide Y receptor type 1 (Homo sapiens, UniProt P25929)", "T1 sequence (P25929 whole entry)": "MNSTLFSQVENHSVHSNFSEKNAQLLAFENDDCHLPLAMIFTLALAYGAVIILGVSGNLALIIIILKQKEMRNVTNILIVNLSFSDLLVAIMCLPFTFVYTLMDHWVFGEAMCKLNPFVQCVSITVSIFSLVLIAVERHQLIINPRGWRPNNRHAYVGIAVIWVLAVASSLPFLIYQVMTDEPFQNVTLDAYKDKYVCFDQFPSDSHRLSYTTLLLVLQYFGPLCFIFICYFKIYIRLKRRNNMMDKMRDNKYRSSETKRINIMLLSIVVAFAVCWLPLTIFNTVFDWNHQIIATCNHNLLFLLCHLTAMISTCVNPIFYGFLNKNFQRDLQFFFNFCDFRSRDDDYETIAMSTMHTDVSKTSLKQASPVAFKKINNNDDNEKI", "test": "Displacement of [125I]NPY from human neuropeptide Y1 receptor expressed in human MCF7 cells after 40 mins; call rule not given here"}, "[2]": {"target": "T2, Neuropeptide Y receptor type 2 (Homo sapiens, UniProt P49146)", "T2 sequence (P49146 whole entry)": "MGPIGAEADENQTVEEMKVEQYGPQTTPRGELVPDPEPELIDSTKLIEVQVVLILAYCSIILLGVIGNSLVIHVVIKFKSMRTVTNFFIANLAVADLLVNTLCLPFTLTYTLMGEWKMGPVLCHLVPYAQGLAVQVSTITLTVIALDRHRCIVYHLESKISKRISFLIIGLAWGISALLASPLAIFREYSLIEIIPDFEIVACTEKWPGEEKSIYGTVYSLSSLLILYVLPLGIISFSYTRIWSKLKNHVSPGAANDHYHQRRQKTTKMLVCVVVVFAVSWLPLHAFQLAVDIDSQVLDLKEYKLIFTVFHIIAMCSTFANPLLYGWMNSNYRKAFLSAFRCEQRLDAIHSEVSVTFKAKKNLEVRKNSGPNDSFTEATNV", "test": "Displacement of [125I]PYY from human neuropeptide Y2 receptor expressed in human SK-N-BE2 cells after 40 mins"}, "[3]": {"target": "Neuropeptide Y receptor type 4 (Homo sapiens, UniProt P50391)", "sequence (P50391 whole entry)": "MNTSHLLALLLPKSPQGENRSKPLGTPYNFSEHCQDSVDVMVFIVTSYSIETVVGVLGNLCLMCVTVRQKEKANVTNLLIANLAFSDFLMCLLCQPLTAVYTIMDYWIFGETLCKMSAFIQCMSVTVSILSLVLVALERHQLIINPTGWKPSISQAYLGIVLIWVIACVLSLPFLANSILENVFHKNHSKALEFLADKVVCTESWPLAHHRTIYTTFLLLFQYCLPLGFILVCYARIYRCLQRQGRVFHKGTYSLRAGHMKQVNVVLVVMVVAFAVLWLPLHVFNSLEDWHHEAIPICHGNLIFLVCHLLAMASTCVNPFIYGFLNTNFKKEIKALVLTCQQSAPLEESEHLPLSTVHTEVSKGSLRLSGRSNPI", "test": "Displacement of [125I]Pancreatic polypeptide from human neuropeptide Y4 receptor in human HEK293 cells after 40 mins"}},
  "note": "Several values for one entry are separate records, joined by “and”; a condition that tells them apart may be missing. Equal entries are not always repeated. Where a SMILES comes first, the peptide text is derived from it. The star is where a group is joined. DOTA = O=C(O)CN1CCN(CC(=O)O)CCN(CC(=O)*)CCN(CC(=O)O)CC1",
  "data": [
    {"compound": "CC(C)C[C@H](NC(=O)[C@H](CCCNC(=N)N)NC(=O)[C@H](Cc1ccc(O)cc1)NC(=O)[C@H](CCCCNC(=O)CN1CCN(CC(=O)O)CCN(CC(=O)O)CCN(CC(=O)O)CC1)NC(=O)[C@@H]1CCCN1C(=O)[C@@H](N)CC(N)=O)C(=O)N[C@@H](CCCNC(=N)N)C(=O)N[C@@H](Cc1ccc(O)cc1)C(=O)O", "note": "(H-NPK(DOTA)YRLRY-OH)", "values": [
      {"measurement": "Ki", "setting": "[1]; mcf7", "value": "Not Active"}
    ]},
    {"compound": "H-IKPIYRLRY-NH2", "values": [
      {"measurement": "Ki", "setting": "[1]; read-out: Ki", "value": 128, "unit": "nM"}
    ]},
    {"compound": "CC[C@H](C)[C@H](N)C(=O)N[C@@H](CC(N)=O)C(=O)N1CCC[C@H]1C(=O)N[C@@H](CCCCNC(=O)CN1CCN(CC(=O)O)CCN(CC(=O)O)CCN(CC(=O)O)CC1)C(=O)N[C@@H](Cc1ccc(O)cc1)C(=O)N[C@@H](CCCNC(=N)N)C(=O)N[C@@H](CC(C)C)C(=O)N[C@@H](CCCNC(=N)N)C(=O)N[C@@H](Cc1ccc(O)cc1)C(N)=O", "values": [
      {"measurement": "Ki", "setting": "[2]", "value": "Not Active"},
      {"measurement": "Ki", "setting": "[3]; hek293", "value": "Not Active"}
    ]},
    {"compound": "H-INPIYRLRY-OH", "values": [
      {"measurement": "Ki", "setting": "[1]; read-out: Ki", "value": "5 nM and 39 nM"},
      {"measurement": "Ki", "setting": "[2]; read-out: Ki", "value": 11.3, "unit": "nM"},
      {"measurement": "Ki", "setting": "[3]; read-out: Ki", "value": 5.8, "unit": "nM"}
    ]}
  ]
}
